Reference: patent US11919902B2, “Aryl-bipyridine amine derivatives as phosphatidylinositol phosphate kinase inhibitors” (HiberCell, Inc., priority 2017, dated 2024)

Tests used:
[1] = molecular target: T1, PIP4K2A (full length protein, SignalChem) (Homo sapiens, UniProt P48426); test: Kinase Assay PIP4K2 A (Sprint); ADP-Glo biochemical assay; conditions: Table 2; compounds listed under IC50 range headings
T1 construct: 4 nM PIP4K2A (full length protein, SignalChem); purchased SignalChem
T1 sequence (P48426 1-406): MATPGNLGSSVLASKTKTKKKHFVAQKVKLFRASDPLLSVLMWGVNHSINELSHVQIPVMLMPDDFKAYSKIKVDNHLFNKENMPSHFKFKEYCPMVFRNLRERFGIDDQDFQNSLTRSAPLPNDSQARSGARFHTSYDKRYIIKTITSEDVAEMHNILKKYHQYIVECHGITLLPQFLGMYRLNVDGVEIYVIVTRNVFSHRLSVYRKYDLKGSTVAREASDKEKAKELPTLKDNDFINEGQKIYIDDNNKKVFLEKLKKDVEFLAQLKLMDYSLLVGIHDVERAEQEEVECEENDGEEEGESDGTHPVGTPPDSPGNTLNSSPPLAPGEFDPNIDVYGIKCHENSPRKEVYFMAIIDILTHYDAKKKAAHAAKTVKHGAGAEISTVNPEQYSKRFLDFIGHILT
Method in brief: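 ADP-Glo luminescence detected ADP after a 1 h RT reaction started with 60 μM ATP solution. Before that, full-length PIP4K2A (4 nM in mix) with 100 μM PI(5)P diC8 was pre-incubated 15 min with compounds in MOPS buffer pH 7.2, 25 mM MgCl2, 0.005% Tween 20. IC50 derived from % inhibition relative to DMSO over 10 three-fold concentrations.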

GST tagged PIP4KtypeIIA = molecular target: T2, GST tagged PIP4KtypeIIA (Homo sapiens, UniProt P48426); test: ADP-glo kinase assay PIP4K 2A (PIP4KtypeIIA inhibition assay); type: biochemical; conditions: Table 3; compounds listed under IC50 range headings; 10 uM ATP, 0.5 nM PIP4KIIA
T2 construct: made in house; host or cells: E. coli
T2 sequence (P48426 1-406): T1 sequence (P48426 1-406)
Method in brief: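 Read-out was ADP-Glo luminescence converted to μM ADP, with IC50 plotted as % of no-inhibitor activity against log concentration. Reactions contained 10 μM ATP, 80 μM PI5P with DOPE carrier, and 0.5 nM GST-tagged PIP4KIIA (E. coli-expressed) in pH 7.3 HEPES/MgCl2 buffer with 5% DMSO. Enzyme and compound (≤4.8 μM) were preincubated 1 h at 27 °C before the 1 h reaction.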

GST tagged PIP4KtypeIIB = molecular target: T3, GST tagged PIP4KtypeIIB (Homo sapiens, UniProt P78356); test: Trans-FI P kinase assay PIP4K2B (PIP4KtypeIIB inhibition assay); type: biochemical; conditions: Table 4; compounds listed under IC50 range headings; 100 uM GTP, 5 nM PIP4KIIB; read-out: Trans-FI P kinase assays: PIP4K2B IC50
T3 construct: made in house; host or cells: E. coli
T3 sequence (P78356 1-416): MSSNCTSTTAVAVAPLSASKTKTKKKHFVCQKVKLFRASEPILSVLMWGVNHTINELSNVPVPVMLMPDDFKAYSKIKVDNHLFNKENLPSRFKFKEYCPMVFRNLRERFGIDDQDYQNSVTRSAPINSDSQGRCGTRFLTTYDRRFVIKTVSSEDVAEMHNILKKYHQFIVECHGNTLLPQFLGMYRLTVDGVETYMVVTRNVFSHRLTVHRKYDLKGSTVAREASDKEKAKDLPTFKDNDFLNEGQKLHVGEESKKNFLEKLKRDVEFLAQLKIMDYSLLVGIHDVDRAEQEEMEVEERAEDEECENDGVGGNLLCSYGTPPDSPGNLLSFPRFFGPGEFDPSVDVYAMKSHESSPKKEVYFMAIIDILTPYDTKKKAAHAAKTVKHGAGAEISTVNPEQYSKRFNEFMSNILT
Method in brief: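 Transcreener FI fluorescence, converted to GDP by calibration, tracked product from 5 nM E. coli-expressed GST-PIP4KIIB acting on 80 uM PI5P (DOPE carrier) with 100 uM GTP. Compound (top 4.8 uM final, 5% DMSO) was preincubated 1 h at 27 C before the 2 h reaction; IC50 fitted from residual activity.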

| IC50 [1] | IC50 (GST tagged PIP4KtypeIIA) | IC50 (GST tagged PIP4KtypeIIB) | Structure (SMILES) |
| --- | --- | --- | --- |
| 5 to 100 nM | 100 to 1000 nM | 100 to 1000 nM | Nc1ncc(-c2csc3ncccc23)cc1-c1ccc(N2CCCC2=O)cn1 [Example 23, 1-(2′-amino-5′-(thieno[2,3-b]pyridin-3-yl)-[2,3′-bipyridin]-5-yl)pyrrolidin-2-one] |
| 100 to 1000 nM | 1000 to 2500 nM | 1000 to 2500 nM | Nc1ncc(-c2cccc3ncsc23)cc1-c1ccc(N2CCCC2=O)cn1 [Example 24, 1-(2′-amino-5′-(benzo[d]thiazol-7-yl)-[2,3′-bipyridin]-5-yl)pyrrolidin-2-one] |
| 1000 to 2500 nM | 2500 to 5000 nM | > 5000 nM | Nc1ncc(-c2cccc3nccn23)cc1-c1ccc(N2CCCC2=O)cn1 [Example 25, 1-(2′-amino-5′-(imidazo[1,2-a]pyridin-5-yl)-[2,3′-bipyridin]-5-yl)pyrrolidin-2-one] |
| 5 to 100 nM | 10 to 100 nM | 100 to 1000 nM | Nc1ncc(-c2c[nH]c3ncc(Cl)cc23)cc1-c1ccc(N2CCCC2=O)cn1 [Example 26, 1-(2′-amino-5′-(5-chloro-1H-pyrrolo[2,3-b]pyridin-3-yl)-[2,3′-bipyridin]-5-yl)pyrrolidin-2-one] |
| 5 to 100 nM | 100 to 1000 nM | 100 to 1000 nM | O=C1CCCN1c1ccc(-c2cncc(-c3c[nH]c4ncc(Cl)cc34)c2)cc1 [Example 27, 1-(4-(5-(5-chloro-1H-pyrrolo[2,3-b]pyridin-3-yl)pyridin-3-yl)phenyl)pyrrolidin-2-one] |
| 5 to 100 nM | 100 to 1000 nM | 100 to 1000 nM | O=C1CCCN1c1ccc(-c2cncc(-c3c[nH]c4ncccc34)c2)cc1 [Example 28, 1-(4-(5-(1H-pyrrolo[2,3-b]pyridin-3-yl)pyridin-3-yl)phenyl)pyrrolidin-2-one] |
| 5 to 100 nM | 100 to 1000 nM | 100 to 1000 nM | O=C1CCCN1c1ccc(-c2cncc(-c3c[nH]c4ncncc34)c2)cc1 [Example 30, 1-(4-(5-(7H-pyrrolo[2,3-d]pyrimidin-5-yl)pyridin-3-yl)phenyl)pyrrolidin-2-one] |
| 5 to 100 nM | 10 to 100 nM | 100 to 1000 nM | Cc1cnc2[nH]cc(-c3cncc(-c4ccc(N5CCCC5=O)cc4)c3)c2c1 [Example 31, 1-(4-(5-(5-methyl-1H-pyrrolo[2,3-b]pyridin-3-yl)pyridin-3-yl)phenyl)pyrrolidin-2-one] |
| < 5000 nM | > 5000 nM | > 5000 nM | Cn1ccc(-c2cncc(-c3ccc(N4CCCC4=O)cc3)c2)cc1=O [Example 33, 1′-methyl-5-(4-(2-oxopyrrolidin-1-yl)phenyl)-[3,4′-bipyridin]-2′(1′H)-one] |
| 5 to 100 nM | 100 to 1000 nM | 100 to 1000 nM | COc1cnc2[nH]ccc2c1-c1cncc(-c2ccc(N3CCCC3=O)cc2)c1 [Example 34, 1-(4-(5-(5-methoxy-1H-pyrrolo[2,3-b]pyridin-4-yl)pyridin-3-yl)phenyl)pyrrolidin-2-one] |
| 100 to 1000 nM | 1000 to 2500 nM | 100 to 1000 nM | Cc1cnc2[nH]ccc2c1-c1cncc(-c2ccc(N3CCCC3=O)cc2)c1 [Example 35, 1-(4-(5-(5-methyl-1H-pyrrolo[2,3-b]pyridin-4-yl)pyridin-3-yl)phenyl)pyrrolidin-2-one] |
| 1000 to 2500 nM | > 5000 nM | 2500 to 5000 nM | O=C1CCCN1c1ccc(-c2cncc(-c3ccc(=O)[nH]c3)c2)cc1 [Example 36, 5′-(4-(2-oxopyrrolidin-1-yl)phenyl)-[3,3′-bipyridin]-6(1H)-one] |
| 2500 to 5000 nM | > 5000 nM | > 5000 nM | Cn1cc(-c2cncc(-c3ccc(N4CCCC4=O)cc3)c2)ccc1=O [Example 37, 1-methyl-5′-(4-(2-oxopyrrolidin-1-yl)phenyl)-[3,3′-bipyridin]-6(1H)-one] |
| 5 to 100 nM | 100 to 1000 nM | 100 to 1000 nM | Cn1cc(-c2cncc(-c3ccc(N4CCCC4=O)cc3)c2)c2cccnc21 [Example 39, 1-(4-(5-(1-methyl-1H-pyrrolo[2,3-b]pyridin-3-yl)pyridin-3-yl)phenyl)pyrrolidin-2-one] |
